Source: patent publication US11028088B2, “Modulators of BTK proteolysis and methods of use” (Yale University, priority 2018, dated 2021)
Like-named read-outs stand apart in the source and are kept apart here.

How the values were obtained:
[1] = target: T1, HER3 (Homo sapiens, UniProt P21860); experiment: HER3/ERBB3 degradation (western blot, OVCAR8 cells); format: cell-based
T1 construct: endogenous in cells; host or cells: OVCAR8
Description: FIG. 10 illustrates a Western blot of Compound 102-related degradation of ERBB3.
In various embodiments, treatment with PROTAC was performed in one of two ways: 1) For experiments involving >16 h exposure to compound, a 1000× stock was added to cells followed by gentle agitation; 2) For shorter treatments, a 2× stock was added to an equal volume of cells to ensure uniform drug exposure. For immortalized cell lines, 2×10^6 cells per treatment condition were collected and washed once with ice cold PBS (IX), followed by lysis in buffer containing 20 mM Tris [pH 8.0], 0.25% sodium deoxycholate, 1% Triton X-100, supplemented with protease (Roche) and phosphatase inhibitors (10 mM NaF, 2 mM Na3VO4, 10 mM β-glycerophosphate, 10 mM Na-pyrophosphate). Lysates were spun at 15,000×g for 10 min at 4° C. and supernatant was quantified for total protein content using the Pierce BCA Protein Assay (Thermo Fisher Scientific). 30 μg of protein was loaded onto 12% SDS-PAGE gels or 4-15% Mini-PROTEAN TGX precast gradient gels (Bio-Rad), transferred onto nitrocellulose membranes, and probed with the specified primary antibodies overnight with rocking at 4° C. in 1×TBS-T containing 5% non-fat milk.
(§1) Either anti-rabbit or anti-mouse HRP-conjugated secondary antibodies (Pierce) were incubated with the membranes for 1 h at room temperature at 1:10,000 dilutions in 5% non-fat milk in IX TBS-T. Imaging was performed using the ECL Prime chemiluminescent western blot detection reagents (Amersham) followed by visualization with the Bio-Rad ChemiDoc imaging instrument. All western blots were subsequently processed and quantified using the accompanying Bio-Rad Image Lab software. Primary antibodies used were: Anti-actin antibody (Cat. #MA 1-744) purchased from ThermoFisher Scientific; anti-BTK (Cat. #8547), anti-pBTK (Y223, Cat. #5082), anti-ITK (Cat. #2380), anti-GAPDH (Cat. #5179), anti-IKZF1 (Cat. #9034), and anti-IKZF3 (Cat. #15103) antibodies purchased from Cell Signaling Technology. All antibodies were used at 1:1,000 dilutions in 5% non-fat milk in 1×TBS-Tween (TBS-T) or Blotto blocker (Thermo Scientific) unless otherwise noted in supplier specifications.

[2] = target: BTK (Homo sapiens, UniProt Q06187); experiment: BTK degradation in NAMALWA cells (immunoblot); format: cell-based; parameters: host or cells: NAMALWA; settings: for ability to degrade BTK: dose escalation; for DC50: concentration needed to degrade 50% of the total pool of BTK; for Max: maximal BTK degradation
Description: NAMALWA and Jurkat cell lines were purchased from ATCC and cultured according to supplier guidelines at 37° C. […] Wild-type and C481S BTK XLA cell lines were cultured as previously described (39). Written, informed consent was obtained prior to the collection of cells from CLL patients using the IWCLL2008 criteria. Isolation of mononuclear cells from peripheral blood was prepared using density gradient centrifugation. B-cells were then negatively selected ([…] Technologies). […] They were maintained at 37° C. in 5% CO2.
Lysates were spun at 15,000×g for 10 min at 4° C. and supernatant was quantified for total protein content using the Pierce BCA Protein Assay (Thermo Fisher Scientific).
as §1, with “Primary antibodies used were: Anti-actin antibody (Cat. #MA 1-744) purchased from ThermoFisher Scientific; anti-BTK (Cat. #8547), anti-pBTK (Y223, Cat. #5082), anti-ITK (Cat. #2380), anti-GAPDH (Cat. #5179), anti-IKZF1 (Cat. #9034), and anti-IKZF3 (Cat. #15103) antibodies purchased from Cell Signaling Technology.” left out

Chain of BTK (Q06187 whole entry): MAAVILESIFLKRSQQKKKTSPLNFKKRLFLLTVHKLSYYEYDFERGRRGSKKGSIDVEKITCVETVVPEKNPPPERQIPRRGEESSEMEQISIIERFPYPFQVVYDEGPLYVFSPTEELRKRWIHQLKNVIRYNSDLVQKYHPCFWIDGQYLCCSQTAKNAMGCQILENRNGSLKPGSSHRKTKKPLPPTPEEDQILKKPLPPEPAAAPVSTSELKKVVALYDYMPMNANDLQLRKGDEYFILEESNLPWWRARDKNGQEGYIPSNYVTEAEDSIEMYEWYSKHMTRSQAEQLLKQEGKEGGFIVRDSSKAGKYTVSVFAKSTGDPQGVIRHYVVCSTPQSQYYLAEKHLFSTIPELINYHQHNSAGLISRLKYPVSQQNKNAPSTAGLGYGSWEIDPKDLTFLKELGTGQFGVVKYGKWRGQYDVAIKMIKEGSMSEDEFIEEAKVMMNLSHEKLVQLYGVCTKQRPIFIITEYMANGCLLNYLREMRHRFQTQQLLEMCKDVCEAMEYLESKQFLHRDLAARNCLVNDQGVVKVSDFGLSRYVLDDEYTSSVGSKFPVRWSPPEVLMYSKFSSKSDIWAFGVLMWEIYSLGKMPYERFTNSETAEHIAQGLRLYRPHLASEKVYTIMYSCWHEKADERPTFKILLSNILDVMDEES
T1 sequence (P21860 20-1342): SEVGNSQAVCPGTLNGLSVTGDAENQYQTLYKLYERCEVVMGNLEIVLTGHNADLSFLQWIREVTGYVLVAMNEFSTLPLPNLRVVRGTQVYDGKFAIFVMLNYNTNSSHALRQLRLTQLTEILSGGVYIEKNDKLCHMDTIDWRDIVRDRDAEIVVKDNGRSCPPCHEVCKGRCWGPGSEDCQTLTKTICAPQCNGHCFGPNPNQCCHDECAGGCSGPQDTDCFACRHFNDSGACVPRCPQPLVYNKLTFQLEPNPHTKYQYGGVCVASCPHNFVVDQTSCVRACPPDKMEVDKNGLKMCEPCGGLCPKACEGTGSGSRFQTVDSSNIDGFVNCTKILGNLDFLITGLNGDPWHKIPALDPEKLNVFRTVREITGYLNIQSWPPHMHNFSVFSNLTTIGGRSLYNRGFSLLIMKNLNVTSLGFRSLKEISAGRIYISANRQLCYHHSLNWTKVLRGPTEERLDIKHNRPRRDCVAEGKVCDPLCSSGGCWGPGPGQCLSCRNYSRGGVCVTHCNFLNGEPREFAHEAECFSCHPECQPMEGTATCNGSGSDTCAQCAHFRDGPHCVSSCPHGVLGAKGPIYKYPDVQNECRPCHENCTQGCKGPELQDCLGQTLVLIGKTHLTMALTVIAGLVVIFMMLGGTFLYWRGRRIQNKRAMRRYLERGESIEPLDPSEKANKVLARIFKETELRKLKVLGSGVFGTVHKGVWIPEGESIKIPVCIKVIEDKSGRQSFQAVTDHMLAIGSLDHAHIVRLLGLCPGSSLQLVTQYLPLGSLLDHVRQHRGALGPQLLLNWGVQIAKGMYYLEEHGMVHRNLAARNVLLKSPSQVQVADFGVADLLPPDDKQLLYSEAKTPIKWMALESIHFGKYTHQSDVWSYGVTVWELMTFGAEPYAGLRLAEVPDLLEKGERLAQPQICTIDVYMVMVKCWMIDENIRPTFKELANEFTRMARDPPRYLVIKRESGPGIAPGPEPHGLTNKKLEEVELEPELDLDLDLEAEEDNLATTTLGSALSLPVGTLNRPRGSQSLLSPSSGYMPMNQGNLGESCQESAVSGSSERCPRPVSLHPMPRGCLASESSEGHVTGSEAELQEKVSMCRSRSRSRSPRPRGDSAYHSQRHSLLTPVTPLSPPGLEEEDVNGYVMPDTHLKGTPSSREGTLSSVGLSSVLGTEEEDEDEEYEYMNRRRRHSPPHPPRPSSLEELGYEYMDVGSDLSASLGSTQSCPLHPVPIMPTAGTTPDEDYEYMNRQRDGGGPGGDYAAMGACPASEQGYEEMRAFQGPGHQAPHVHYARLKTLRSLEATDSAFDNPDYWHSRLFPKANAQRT

HER3 Degradation [1] | Compound | DC50 ([2]; NAMALWA cells, read-out: DC50) [µM] | also measured
No | Nc1ncnc2c1c(-c1ccc(Oc3ccccc3)cc1)nn2C1CCN(CCOCC(=O)Nc2cccc3c2C(=O)N(C2CCC(=O)NC2=O)C3=O)CC1 (stereo not shown) [Compound 100, 2-(2-(4-(4-amino-3-(4-phenoxyphenyl)-1H-pyrazolo[3,4-d]pyrimidin-1-yl)piperidin-1-yl)ethoxy)-N-(2-(2,6-dioxopiperidin-3-yl)-1,3-dioxoisoindolin-4-yl)acetamide] |  | ability to degrade BTK ([2]; NAMALWA cells, 24 h): inability to degrade BTK; DC50 ([2]; NAMALWA cells): No Degradation (n = 4)
No | Nc1ncnc2c1c(-c1ccc(Oc3ccccc3)cc1)nn2C1CCN(CCOCCOCC(=O)Nc2cccc3c2C(=O)N(C2CCC(=O)NC2=O)C3=O)CC1 (stereo not shown) [Compound 101, 2-(2-(2-(4-(4-amino-3-(4-phenoxyphenyl)-1H-pyrazolo[3,4-d]pyrimidin-1-yl)piperidin-1-yl)ethoxy)ethoxy)-N-(2-(2,6-dioxopiperidin-3-yl)-1,3-dioxoisoindolin-4-yl)acetamide] |  | ability to degrade BTK ([2]; NAMALWA cells, 24 h): inability to degrade BTK; DC50 ([2]; NAMALWA cells): No Degradation
No | Nc1ncnc2c1c(-c1ccc(Oc3ccccc3)cc1)nn2C1CCN(CCCOCCCOCCC(=O)Nc2cccc3c2C(=O)N(C2CCC(=O)NC2=O)C3=O)CC1 (stereo not shown) [Compound 103, 3-(3-(3-(4-(4-amino-3-(4-phenoxyphenyl)-1H-pyrazolo[3,4-d]pyrimidin-1-yl)piperidin-1-yl)propoxy)propoxy)-N-(2-(2,6-dioxopiperidin-3-yl)-1,3-dioxoisoindolin-4-yl)propanamide] | 0.0683 | Max ([2]; at 1.0 μM, NAMALWA cells): 95%
No | Nc1ncnc2c1c(-c1ccc(Oc3ccccc3)cc1)nn2C1CCN(CCCCCCOCCOCC(=O)Nc2cccc3c2C(=O)N(C2CCC(=O)NC2=O)C3=O)CC1 (stereo not shown) [Compound 104, 2-[2-[6-[4-[4-amino-3-(4-phenoxyphenyl)pyrazolo[3,4-d]pyrimidin-1-yl]-1-piperidyl]hexoxy]ethoxy]-N-[2-(2,6-dioxo-3-piperidyl)-1,3-dioxo-isoindolin-4-yl]acetamide] | 0.0806 | degradation of BTK at 1.0 μM ([2]; 1.0 μM, NAMALWA cells): nearly complete degradation; Max ([2]; at 1.0 μM, NAMALWA cells): 96%
No | C=CC(=O)Nc1cc(-c2nn(C3CCN(CCCCCCOCCOCCOCC(=O)N[C@H](C(=O)N4C[C@H](O)C[C@H]4C(=O)NCc4ccc(-c5scnc5C)cc4)C(C)(C)C)CC3)c3ncnc(N)c23)ccc1Oc1ccccc1 [Compound 123, (2S,4R)-1-((S)-19-(4-(3-(3-acrylamido-4-phenoxyphenyl)-4-amino-1H-pyrazolo[3,4-d]pyrimidin-1-yl)piperidin-1-yl)-2,2-dimethyl-5-oxo-7,10,13-trioxa-4-azanonadecanecarbonyl)-4-hydroxy-N-(4-(4-methylthiazol-5-yl)benzyl)pyrrolidine-2-carboxamide] |  | 
No | C=CC(=O)Nc1cc(-c2nn(C3CCN(CCCCCCOCCCCCOCC(=O)N[C@H](C(=O)N4C[C@H](O)C[C@H]4C(=O)NCc4ccc(-c5scnc5C)cc4)C(C)(C)C)CC3)c3ncnc(N)c23)ccc1Oc1ccccc1 [Compound 124, (2S,4R)-1-((S)-2-(2-(5-(6-(4-(3-(3-acrylamido-4-phenoxyphenyl)-4-amino-1H-pyrazolo[3,4-d]pyrimidin-1-yl)piperidin-1-yl)hexyloxy)pentyloxy)acetamido)-3,3-dimethylbutanoyl)-4-hydroxy-N-(4-(4-methylthiazol-5-yl)benzyl)pyrrolidine-2-carboxamide] |  | 
No | C=CC(=O)Nc1cc(-c2nn(C3CCN(CCCCCCOCCOCCOCCOCC(=O)N[C@H](C(=O)N4C[C@H](O)C[C@H]4C(=O)NCc4ccc(-c5scnc5C)cc4)C(C)(C)C)CC3)c3ncnc(N)c23)ccc1Oc1ccccc1 [Compound 125, (2S,4R)-1-((S)-22-(4-(3-(3-acrylamido-4-phenoxyphenyl)-4-amino-1H-pyrazolo[3,4-d]pyrimidin-1-yl)piperidin-1-yl)-2,2-dimethyl-5-oxo-7,10,13,16-tetraoxa-4-azadocosanecarbonyl)-4-hydroxy-N-(4-(4-methylthiazol-5-yl)benzyl)pyrrolidine-2-carboxamide] |  | 
No | C=CC(=O)Nc1cc(-c2nn(C3CCN(CCCCCCOCCOCCOCCOCCOCC(=O)N[C@H](C(=O)N4C[C@H](O)C[C@H]4C(=O)NCc4ccc(-c5scnc5C)cc4)C(C)(C)C)CC3)c3ncnc(N)c23)ccc1Oc1ccccc1 [Compound 126, (2S,4R)-1-((S)-25-(4-(3-(3-acrylamido-4-phenoxyphenyl)-4-amino-1H-pyrazolo[3,4-d]pyrimidin-1-yl)piperidin-1-yl)-2,2-dimethyl-5-oxo-7,10,13,16,19-pentaoxa-4-azapentacosanecarbonyl)-4-hydroxy-N-(4-(4-methylthiazol-5-yl)benzyl)pyrrolidine-2-carboxamide] |  | 
 | Cc1ncsc1-c1ccc(CNC(=O)[C@@H]2C[C@@H](O)CN2C(=O)[C@H](C(C)C)N2Cc3ccccc3C2=O)c(OCCCCOCCCCN2CCC(n3nc(-c4ccc(Oc5ccccc5)cc4)c4c(N)ncnc43)CC2)c1 [Compound 127, (2S,4R)—N-(2-(4-(4-(4-(4-amino-3-(4-phenoxyphenyl)-1H-pyrazolo[3,4-d]pyrimidin-1-yl)piperidin-1-yl)butoxy)butoxy)-4-(4-methylthiazol-5-yl)benzyl)-4-hydroxy-1-((S)-3-methyl-2-(1-oxoisoindolin-2-yl)butanoyl)pyrrolidine-2-carboxamide] | 0.162 | Max ([2]; concentration not given): 50%
 | CN1C(=O)CCC(N2C(=O)c3ccc(NC(=O)COCCOCCN4CCC(n5nc(-c6ccc(Oc7ccccc7)cc6)c6c(N)ncnc65)CC4)cc3C2=O)C1=O (stereo not shown) [Compound 130, 2-(2-(2-(4-(4-amino-3-(4-phenoxyphenyl)-1H-pyrazolo[3,4-d]pyrimidin-1-yl)piperidin-1-yl)ethoxy)ethoxy)-N-(2-(1-methyl-2,6-dioxopiperidin-3-yl)-1,3-dioxoisoindolin-5-yl)acetamide] |  | ability to degrade BTK ([2]; NAMALWA cells, 24 h): neither ibrutinib nor Compound 130 were able to induce degradation of BTK
 | Nc1ncnc2c1c(-c1ccc(Oc3ccccc3)cc1)nn2C1CCN(CCOCCOCCOc2ccc3c(c2)C(=O)N(C2CCC(=O)NC2=O)C3=O)CC1 (stereo not shown) [Compound 131, 5-(2-(2-(2-(4-(4-amino-3-(4-phenoxyphenyl)-1H-pyrazolo[3,4-d]pyrimidin-1-yl)piperidin-1-yl)ethoxy)ethoxy)ethoxy)-2-(2,6-dioxopiperidin-3-yl)isoindoline-1,3-dione] | 0.013 | Max ([2]; concentration not given): >99%
 | Nc1ncnc2c1c(-c1ccc(Oc3ccccc3)cc1)nn2C1CCN(CCOCCOCCOc2ccc3c(c2)CN(C2CCC(=O)NC2=O)C3=O)CC1 (stereo not shown) [Compound 135, 3-(5-(2-(2-(2-(4-(4-amino-3-(4-phenoxyphenyl)-1H-pyrazolo[3,4-d]pyrimidin-1-yl)piperidin-1-yl)ethoxy)ethoxy)ethoxy)-1-oxoisoindolin-2-yl)piperidine-2,6-dione] | 0.007 | Max ([2]; concentration not given): >99%

Compound | HER3 Degradation [1] | DC50 ([2]; NAMALWA cells, read-out: DC50) [µM] | also measured
Nc1ncnc2c1c(-c1ccc(Oc3ccccc3)cc1)nn2C1CCN(CCCCOCCCCOCC(=O)Nc2ccc3c(c2)C(=O)N(C2CCC(=O)NC2=O)C3=O)CC1 (stereo not shown) [Compound 105, 2-[4-[4-[4-[4-amino-3-(4-phenoxyphenyl)pyrazolo[3,4-d]pyrimidin-1-yl]-1-piperidyl]butoxy]butoxy]-N-[2-(2,6-dioxo-3-piperidyl)-1,3-dioxo-isoindolin-5-yl]acetamide] | No | 0.0116 | Max ([2]; at 250 nM, NAMALWA cells): >99%; hook-effect (increase in BTK levels at high PROTAC concentration) ([2]; up to 2.5 μM, NAMALWA cells, 24 h): (No
